The results in this text go back to article doi:10.1101/2024.06.16.599186v1 (biorxiv, 2024).

For orientation: % inhibition means the drop in the measured response relative to a control, in per cent.

Structures can show the parent of a compound that is named as a salt.

This assay deals with MoGep4 (Pyricularia oryzae, UniProt G4N1T8).
Chain of MoGep4 (G4N1T8 1-216): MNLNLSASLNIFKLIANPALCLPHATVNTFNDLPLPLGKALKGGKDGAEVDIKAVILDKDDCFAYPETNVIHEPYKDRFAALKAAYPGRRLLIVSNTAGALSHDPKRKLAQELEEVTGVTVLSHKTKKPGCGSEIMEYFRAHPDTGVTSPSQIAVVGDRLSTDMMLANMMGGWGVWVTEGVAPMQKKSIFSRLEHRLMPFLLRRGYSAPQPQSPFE

`CCCCC(CC)CNC(=N)NC(=N)NCCCCCCNC(=N)NC(=N)NCC(CC)CCCC` (stereo not shown) [AXD, alexidine dihydrochloride]: the “% inhibition at 4 μM” value is listed as 62.9%.
